Results: patent publication US20220017833A1, “Methods and Compositions for Scavenging Sulfides from Hydrocarbon Fluids and Aqueous Streams” (Nexgen Oilfield Chemicals, LLC, priority 2019, published 2022)

Assays:
Format in all cases: physicochemical
[1] = Solution Homogeneity Test; details: Table 5; glyoxy alkyl diaminol in water and MeOH only
Source text: In one aspect, as two-phase reaction products are problematic, scavenger system homogeneity is desired. The two phases could be emulsified or otherwise finely dispersed, but in practice, even fine, seemingly stable dispersions eventually separate or stratify in extended storage or critical use and are not robust enough for practical use. They are not allowed, for example, to be fed through capillaries for fear of plugging them. In this pass/fail test, a sample is held up for visual inspection in a backlit clear vial. A clear, single-phase, homogeneous solution is a pass. Anything else is a fail.

[2] = Storage Capacity Loss Test; details: for BT Capacity Loss / FD Capacity Loss: 72-24 Hrs storage at room temperature; for Min to BT / Min to FD: Short Reaction Time Capacity Test, diaminol in water + 10.00 g MeOH, 20 g test
Description: This test compares the scavenging capacity after 24 hours of storage of the scavenger system at room temperature to that after 72 hours of storage thereof at room temperature. In one embodiment, a sample of the scavenger system is made fresh and split in two portions. The Short Reaction Time Capacity Test is run on one portion after standing 24 hours on the bench at room temperature. Then the same test is run on the other portion after standing 72 hours on the bench at room temperature. The two measured capacities are compared to see if the product degrades in storage. Importantly, some scavengers lose activity with time due to secondary reactions and re-equilibrations that degrade their active form.
Table 5 compares different alkyl substituents on glyoxy alkyl diaminols. These compounds were prepared by reacting one mole of glyoxal, as a 40% aqueous solution, with 2.1 moles of various primary amines in a sufficient amount of MeOH to keep the product from separating into an aqueous layer and a non-aqueous layer. For each amine substituent: methyl (Me), ethyl (Et), normal-propyl (n-Pr), iso-propyl (i-Pr), and iso-propanol [1-propan-2-ol] (i-PrOH), the presence or absence of alpha branching on that substituent is noted. The weight ratios of the diaminols, water, and MeOH, are listed, along with their equivalent weights (Eq. Wt.) and the total equivalents per 20 g test (Eq/test). To measure the product stability, the Storage Capacity Loss between 24 and 72 hours was determined. As described earlier, a fresh sample of the scavenger system is split in two portions. The Short Reaction Time Capacity Test is run on one portion after standing 24 hours on the bench at room temperature. Then the same test is run on the other portion after standing 72 hours on the bench at room temperature. Both the 24-hr and 72-hr capacities (Min to FD and BT) and molar capacities (Min/Eq FD and BT) are listed in the table with the percent capacity loss for each substituent calculated below it. […] The others lost 34% to 77% of their scavenging capacity in 48 hours (72-24), presumably due to secondary reactions and re-equilibrations that degraded their active form. In this system employing only methanol, all of these compositions failed both the Hot Spray Fouling Test and the Spent Water Flowability Test. Two of them, the iso-propylamine [propan-2-amine] and the iso-propanolamine [1-aminopropan-2-ol] passed the Spent Solids Fouling Test.

Hot Spray Fouling Test = details: Table 5; glyoxy alkyl diaminol in water and MeOH only
Source text: In many gas applications, the scavenger must by sprayed into a hot gas stream. This can create insoluble materials (“solids”) as the scavenger system evaporates and/or decomposes. These solids accumulate and foul (interfere with the function) of the vessel, line, or equipment to which the scavenger is being fed. This precludes the scavenger being used in that application. Referring now to FIG. 2, a spray test system 200 is utilized to for the Hot Spray Fouling Test. In one embodiment, an injection atomizer apparatus 22 is employed, wherein the scavenger formulation (not separately labeled) is sprayed onto a sheet 26 through an atomizing nozzle 24, like that used to introduce the scavenger into a gas line, tank, or vessel. The material is first placed in a double boiler (not shown) and brought to 180° F. The heated liquid is then placed in the injection atomizer apparatus 22 and sprayed horizontally onto an aluminum sheet 26 twelve inches away. The chemical drains gravitationally down the sheet where it is funneled into a beaker 28 for collection. If solids are observed on the sheet 26 or in the draining or collected fluid, the sample fails. If no solids are observed, it passes the test.

[3] = Spent Water Flowability Test; parameters: key: Pass: A homogeneous, single-phase solution or thin layer of readily flowable non-sticking liquid constitutes a pass.; Fail: Any solids or thick, sticky insoluble liquid is a fail.; PASS: A homogeneous, single-phase solution or thin layer of readily flowable non-sticking liquid constitutes a pass.; FAIL: Any solids or thick, sticky insoluble liquid is a fail; details: Table 5; glyoxy alkyl diaminol in water and MeOH only
Description: In field applications, spent scavenger is disposed of through a wastewater system. Spent scavenger might be soluble in the scavenger system but insoluble in wastewater. If it cannot be disposed of, it is not suitable for use. To ensure wastewater processing runs trouble free, spent scavenger passing the Spent Solids Fouling Test is then added to 39 times its weight in water (2.5%) and examined again for insoluble solids and viscous, sticky liquids that might foul the wastewater system. Any solids or thick, sticky insoluble liquid is a fail. A homogeneous, single-phase solution or thin layer of readily flowable non-sticking liquid constitutes a pass.

[4] = Spent Solids Fouling Test; details: Table 5, glyoxy alkyl diaminol in water and MeOH only
Source text: In every application, the active component of the scavenger system reacts with H2S to from a reaction product. Once all the active scavenger has been so reacted, it is spent. […] Thioethers are much less water soluble than amines, so the reaction products are often insoluble. Thioether bridges also connect spent scavenger molecules to each other, thereby forming insoluble polymeric solids. These solids accumulate and foul (interfere with the function) of the vessel, line, or equipment to which the scavenger is being fed. […] If any solids or insoluble viscous liquids are observed poorly dispersed in the spent scavenger system or clinging to the sides of the vessel, the scavenging system employed in that Long Reaction Time Capacity Test fails this test. A homogeneous, single-phase solution or thin layer of readily flowable non-sticking liquid constitutes a pass.

[5] = Sample Age 24 Hrs at room temperature
[6] = Sample Age 72 Hrs at room temperature

Row | SMILES | Solution Homogeneity [1] | BT Capacity Loss [2] | FD Capacity Loss [2] | Min/Eq BT ([2]; Sample Age 24 Hrs) | Min/Eq FD ([2]; Sample Age 24 Hrs) | Min to BT [2, 5] | Min to FD [2, 5] | Min/Eq BT ([2]; Sample Age 72 Hrs) | Min/Eq FD ([2]; Sample Age 72 Hrs) | Min to BT [2, 6] | Min to FD [2, 6] | Hot Spray Fouling (Hot Spray Fouling Test) | Spent Water Flowability [3] | Spent Solids Fouling [4] | Spent Solids Fouling ([4]; listed as iso-propanolamine)
1 | CC(O)CNC(O)C(O)NCC(C)O (stereo not drawn) | Pass | 67% | 54% | 444 Min/Eq | 192 Min/Eq | 30 min | 13 min | 148 Min/Eq | 89 Min/Eq | 10 min | 6 min | Fail | Fail | Pass | passed
2 | CCNC(O)C(O)NCC (stereo not drawn) [Et] | Pass | 46% | 71% | 436 Min/Eq | 365 Min/Eq | 37 min | 31 min | 236 Min/Eq | 106 Min/Eq | 20 min | 9 min | Fail | Fail | Fail | –
3 | CNC(O)C(O)NC (stereo not drawn) [Me] | Pass | 34% | 47% | 301 Min/Eq | 156 Min/Eq | 29 min | 15 min | 197 Min/Eq | 83 Min/Eq | 19 min | 8 min | Fail | Fail | Fail | –
4 | CCCNC(O)C(O)NCCC (stereo not drawn) [n-Pr] | Pass | 55% | 77% | 501 Min/Eq | 409 Min/Eq | 38 min | 31 min | 224 Min/Eq | 92 Min/Eq | 17 min | 7 min | Fail | Fail | Fail | –
